Experimental data from patent US5625032A, “Selective amylin antagonist peptides and uses therefor” (Amylin Pharmaceuticals, Inc., priority 1993, dated 1997).
Entries after “also recorded” stand apart in the source; their conditions may differ. Peptide text beside a SMILES is read from it.

Legend:
rat soleus muscle = assay: Soleus muscle assay: antagonism of 100 nM rat amylin on insulin-stimulated glycogenesis; assay type: cell-based; conditions: read-out: IC50, antagonism of amylin effect on insulin-stimulation of glycogenesis in skeletal muscle
Experimental: Rat soleus muscle preparations have been in use for many years to study muscle glycogen metabolism and are well known in the field. The soleus muscle assay can be used to measure or test for amylin antagonist activity in vitro. Assays of biological activity of amylin or amylin antagonist preparations in the soleus muscle are performed using previously described methods (e.g., Young, A. A. et al., Am. J. Physiol. 263:E274-281 (1992)).
In summary, while amylin or amylin agonist activity is assessed by measuring the incorporation of radiolabelled glucose into glycogen in soleus muscle in response to an amylin or other amylin agonist, amylin antagonist activity is assessed by measuring the reversal of this inhibition in the presence of 100 nM rat amylin and an amylin antagonist. Concentrations of peptide dissolved in carrier-free buffers are determined by quantitative amino acid analysis, as described herein. The ability of compounds to act as antagonists in this assay can also be evaluated by measuring IC50 values. Standard errors are determined by fitting of sigmoidal dose response curves using a four parameter logistic equation (De Lean, A., Munson, P. J., Guardabasso, V. and Rodbard, D. (1988) ALLFIT, Version 2.7, National Institute of Child Health and Human Development, N.I.H. Bethesda, Md., 1 diskette).
These assays involving the stimulation by insulin of glycogen synthesis in rat soleus muscle in vitro were performed as described by Young, A. A. et al., Am. J. Physiol. 263:E274-281 (1992). Rat amylin inhibited the insulin-stimulated incorporation of radiolabelled glucose into glycogen.
The effects of the peptide in the rat soleus muscle glycogenesis system were measured according to the following method. Insulin-stimulated radioglucose incorporation was measured as described above in the presence of 100 nM rat amylin to maximally suppress incorporation. Increasing concentrations of AAP30 (SEQ ID NO:30), AAP37 (SEQ ID NO:37) and AAP40 (SEQ ID NO:40) were added to test their antagonism of amylin, i.e., to increase radioglucose incorporation under these conditions.

CGRP receptors = target: T1, CGRP receptors (Homo sapiens, UniProt O60894+Q16602); assay: CGRP receptor binding assay (125I human αCGRP, SK-N-MC cell membranes); conditions: for IC50: 20 pM 125I human αCGRP; for selectivity for amylin receptors than CGRP receptors: ratio of CGRP receptor IC50 to amylin receptor IC50
T1 construct: SK-N-MC cells were homogenized in 50 mM HEPES buffer, pH 7.4, and membranes were collected by centrifugation; endogenous in cells; host or cells: human SK-N-MC neuroblastoma cells (membranes)
Source text: (§1) As more fully described in Example 9, these assays, like the amylin receptor binding assay, are competition assays which measure the ability of compounds to bind specifically to certain membrane-bound receptors. Preferred sources of membrane preparations used in these assays are human SK-N-MC neuroblastoma cells and human T47D carcinoma cells to measure binding to CGRP and calcitonin receptors, respectively. Compounds being assayed compete for binding to the CGRP receptor preparations with ^125 I human αCGRP and to the calcitonin receptor preparations with ^125 I salmon calcitonin. Competition curves are analyzed as described for amylin receptor binding assays. The affinity of a compound for the amylin receptor relative to the affinity of the compound for the CGRP and calcitonin receptors determines the selectivity of the compound.
(§2) The selectivity of antagonist peptides for the amylin receptor relative to the CGRP and calcitonin receptors was determined by using two in vitro radioligand binding assays and comparing the results obtained to those acquired from the amylin receptor binding assay described in Example 7.
To measure the affinity of the peptides for CGRP receptors, human SK-N-MC neuroblastoma cells were used. […] Van Valen, Piechot & Jurgens, Neuroscience Letters 119:195-198 (1990). SK-N-MC cells were homogenized in 50 mM HEPES buffer, pH 7.4, and membranes were collected by centrifugation for 15 min at 48,000×g. Membranes were suspended at 0.1 to 0.2 mg protein/0.2 ml assay and were incubated in 50 mM HEPES, pH 7.4 containing BSA, bacitracin, and 2 mM MgCl2 with 20 pM ^125 I human αCGRP (labeled at ^10 his, 2000 Ci/mmol) and unlabeled peptide. Additional methods were similar to those described for amylin receptor binding assays in Example 2.

calcitonin receptors [1] = target: T2, calcitonin receptors (Homo sapiens, UniProt P30988); assay: Calcitonin receptor binding assay (125I salmon calcitonin, T47D cell membranes); conditions: 30 pM 125I salmon calcitonin, 60 minutes, ambient temperature
T2 construct: Membranes were prepared from confluent cultures of T47D cells as described for SK-N-MC cells; endogenous in cells; host or cells: human T47D carcinoma cells (membranes)
T2 sequence (P30988 25-474): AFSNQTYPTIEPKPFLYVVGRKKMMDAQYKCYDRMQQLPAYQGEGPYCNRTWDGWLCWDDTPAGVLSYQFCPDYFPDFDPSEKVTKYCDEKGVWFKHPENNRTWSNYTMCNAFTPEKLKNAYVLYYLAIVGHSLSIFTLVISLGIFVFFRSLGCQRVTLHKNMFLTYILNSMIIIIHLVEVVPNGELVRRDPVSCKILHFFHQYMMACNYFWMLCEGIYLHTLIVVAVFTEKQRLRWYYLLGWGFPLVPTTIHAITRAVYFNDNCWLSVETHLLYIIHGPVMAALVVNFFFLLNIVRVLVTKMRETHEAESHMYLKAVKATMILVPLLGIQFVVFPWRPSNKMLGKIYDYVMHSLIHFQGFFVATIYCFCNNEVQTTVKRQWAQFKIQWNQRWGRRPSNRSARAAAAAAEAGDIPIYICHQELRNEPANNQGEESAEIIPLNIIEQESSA
Source text: as §1, §2
(§3) To determine the affinity of the antagonist peptides for calcitonin receptors, human T47D carcinoma cells were used. […] Findlay et al., Cancer Research 40:4764-4767 (1980). Membranes were prepared from confluent cultures of T47D cells as described for SK-N-MC cells. Membranes were incubated with ^125 I salmon calcitonin (labeled at ^22 tyr, 2000 Ci/mmol) at a concentration of 30 pM for 60 minutes at ambient temperature. Additional methods were similar to those described for amylin receptor binding assays in Example 2. The IC50 of AAP40 (SEQ ID NO:40) for ^125 I salmon calcitonin binding to human T47D cell membranes was 50 nM.

calcitonin receptors [2] = assay: as above; set-up: species or system human; conditions: ratio of calcitonin receptor IC50 to amylin receptor IC50
Source text: as §1, §2, §3

anesthetized rats [3] = assay: Infusion studies: inhibition of amylin-induced changes in plasma glucose, lactate, calcium and blood pressure; assay type: in vivo; conditions: rat, i.v. 1.5 mg bolus then 3 mg/hr for 1.5 h; amylin 50 μg bolus + 50 μg/hour
Experimental: Briefly, these studies are performed on anesthetized rats as described in International Application Number PCT/US92/00185, "Amylin Activity Assays", published Jul. 22, 1992. At time -0.5 hours, test rats are infused with a 1.5 mg bolus of the antagonist being tested followed by antagonist infusion at 3 mg/hr for a further 1.5 hours. At time 0 hours, a 50 μg bolus of amylin is administered followed by amylin infusion at 50 μg/hr for the remainder of the experiment. In these tests, the capacity of the antagonist to block the hyperglycemic and hyperlactemic effects of amylin are indicated by the inhibition of amylin-evoked increases in plasma glucose and plasma lactate.
Amylin antagonists were evaluated in vivo for their ability to inhibit amylin-induced elevation of plasma glucose and plasma lactate and amylin-evoked depression of plasma calcium and blood pressure. Male Harlan Sprague Dawley rats (age 75-85 days, mass 300-350 g) fasted 18-20 hours were halothane anesthetized and cannulated via the saphenous vein for infusions/injections and via the femoral artery for sampling of glucose/lactate/calcium and for recording arterial pressure. One and a half hours after surgery they were infused with a 1.5 mg intravenous bolus of test antagonist, followed by an infusion of 3 mg/hour for a further 1.5 hours (t=-0.5→+1.0 hr). At t=0 hours (0.5 hours after the start of the primed/continuous antagonist infusion) a 50 μg intravenous bolus of rat amylin was administered followed by an infusion of 50 μg/hour which continued until the end of the experiment. Blood samples were collected every 10 minutes for the first 2 hours of the test (then less frequently),and mean arterial pressure was continuously recorded from t=-0.5→t=+0.5 hours. Control rats, not administered the test substance, were injected with either saline or with primed/continuous amylin at t=0 hours, as described above.

anesthetized rats [4] = assay: Renin studies: inhibition of amylin-induced plasma renin activity; assay type: in vivo; conditions: rat, i.v. 0.5 mg then 1.0 mg/hour; amylin 10 μg subcutaneous bolus
Experimental: The amylin antagonist AAP40 (SEQ ID NO:40) was evaluated in vivo for its ability to inhibit amylin-induced plasma renin activity. Male Harlan Sprague Dawley (age 77-82 days, mass 300-350 g) fasted 18-20 hours were halothane anesthetized and cannulated as described in Example 10. One and a half hours after surgery, one treatment group of 7 rats was administered amylin as a 10 μg subcutaneous bolus (t=0). Another treatment group of 6 rats was similarly treated except that they were also administered AAP40 (SEQ ID NO:40) (1 mg/mL) as a primed continuous intravenous infusion of 0.5 mg, then 1.0 mg/hour for a further 1.5 hours (t=-10 min to t=+120 min). Blood samples were collected at t=-30, 0, 30, 60 and 120 min for assessment of plasma renin activity using the INCStar GammaCoat [^125 I] plasma renin activity RIA kit (INCStar, Stillwater, Minn.; Cat. No. CA-533-553). Control rats, not administered AAP40 (SEQ ID NO:40), were injected with either saline or with primed/continuous amylin at t=0 hours, as described above.

T1 sequence (Q16602 23-461): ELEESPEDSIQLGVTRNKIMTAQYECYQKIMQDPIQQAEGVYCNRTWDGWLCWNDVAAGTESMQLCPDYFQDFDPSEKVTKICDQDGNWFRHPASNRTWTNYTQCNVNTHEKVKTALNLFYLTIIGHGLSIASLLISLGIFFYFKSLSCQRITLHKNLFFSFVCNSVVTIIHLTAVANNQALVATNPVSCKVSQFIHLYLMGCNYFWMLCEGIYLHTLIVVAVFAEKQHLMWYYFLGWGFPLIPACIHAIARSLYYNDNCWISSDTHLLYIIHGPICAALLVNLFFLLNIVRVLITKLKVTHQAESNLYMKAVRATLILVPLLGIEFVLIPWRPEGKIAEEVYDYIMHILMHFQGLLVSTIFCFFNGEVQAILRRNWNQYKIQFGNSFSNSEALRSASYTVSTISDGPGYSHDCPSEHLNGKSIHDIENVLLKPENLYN
T1 sequence (O60894 27-148): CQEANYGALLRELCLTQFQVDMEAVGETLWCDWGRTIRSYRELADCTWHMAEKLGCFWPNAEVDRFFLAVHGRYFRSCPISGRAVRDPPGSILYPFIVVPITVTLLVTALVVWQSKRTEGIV

| IC50 (rat soleus muscle) [nM] | IC50 (CGRP receptors) [nM] | selectivity for amylin receptors than CGRP receptors (CGRP receptors) [fold] | IC50 (calcitonin receptors [1]) [nM] | Compound | selectivity for amylin receptors than calcitonin receptors (calcitonin receptors [2]) [fold] | effect on amylin-induced decrease in blood pressure (hypotension) (anesthetized rats [3]) | effect on amylin-induced decrease in plasma calcium (hypocalcemia) (anesthetized rats [3]) | effect on amylin-induced increase in plasma glucose (hyperglycemia) (anesthetized rats [3]) | effect on amylin-induced increase in plasma lactate (hyperlactemia) (anesthetized rats [3]) | effect on amylin-induced plasma renin activity (anesthetized rats [4]) |
| --- | --- | --- | --- | --- | --- | --- | --- | --- | --- | --- |
| 4590 | 2.6 | 12 | 160 | CC(=O)N[C@@H](C)C(=O)N[C@H](C(=O)N[C@@H](CCC(N)=O)C(=O)N[C@@H](CCCNC(=N)N)C(=O)N[C@@H](CC(C)C)C(=O)N[C@@H](C)C(=O)N[C@@H](CC(N)=O)C(=O)N[C@@H](CCC(N)=O)C(=O)N[C@@H](CC(C)C)C(=O)N[C@H](C(=O)N[C@@H](CCCNC(=N)N)C(=O)N[C@@H](CC(C)C)C(=O)N[C@@H](CCC(N)=O)C(=O)N[C@H](C(=O)N[C@@H](Cc1ccc(O)cc1)C(=O)N1CCC[C@H]1C(=O)N[C@@H](CCCNC(=N)N)C(=O)N[C@H](C(=O)N[C@@H](CC(N)=O)C(=O)N[C@H](C(=O)NCC(=O)N[C@@H](CO)C(=O)N[C@@H](CC(N)=O)C(=O)N[C@H](C(=O)N[C@@H](Cc1ccc(O)cc1)C(N)=O)[C@@H](C)O)C(C)C)[C@@H](C)O)[C@@H](C)O)C(C)C)[C@@H](C)O [AAP37] (Ac-ATQRLANQLVRLQTYPRTNVGSNTY-NH2) | 762 | did block this effect | did not inhibit | suppressed; also recorded: prevent | suppressed; also recorded: prevent |  |
| 1130 | 69 | 43 | 36 | CC(=O)N[C@@H](C)C(=O)N[C@H](C(=O)N[C@@H](CCC(N)=O)C(=O)N[C@@H](CC(C)C)C(=O)N[C@@H](CC(C)C)C(=O)N[C@@H](C)C(=O)N[C@@H](CC(N)=O)C(=O)N[C@@H](CCC(N)=O)C(=O)N[C@@H](CC(C)C)C(=O)N[C@H](C(=O)N[C@@H](CCCNC(=N)N)C(=O)N[C@@H](CC(C)C)C(=O)N[C@@H](CCC(N)=O)C(=O)N[C@H](C(=O)N[C@@H](Cc1ccc(O)cc1)C(=O)N1CCC[C@H]1C(=O)N[C@@H](CCCNC(=N)N)C(=O)N[C@H](C(=O)N[C@@H](CC(N)=O)C(=O)N[C@H](C(=O)NCC(=O)N[C@@H](CO)C(=O)N[C@@H](CC(N)=O)C(=O)N[C@H](C(=O)N[C@@H](Cc1ccc(O)cc1)C(N)=O)[C@@H](C)O)C(C)C)[C@@H](C)O)[C@@H](C)O)C(C)C)[C@@H](C)O [AAP30] (Ac-ATQLLANQLVRLQTYPRTNVGSNTY-NH2; N-terminus assumed) | 22 | did not inhibit amylin-induced decreases in blood pressure | did not inhibit | suppressed; also recorded: prevent | suppressed; also recorded: prevent |  |
| 136 | 33 | 66 | 50 | CC(=O)N[C@@H](C)C(=O)N[C@H](C(=O)N[C@@H](CCC(N)=O)C(=O)N[C@@H](CCCNC(=N)N)C(=O)N[C@@H](CC(C)C)C(=O)N[C@@H](C)C(=O)N[C@@H](CC(N)=O)C(=O)N[C@@H](CCC(=O)O)C(=O)N[C@@H](CC(C)C)C(=O)N[C@H](C(=O)N[C@@H](CCCNC(=N)N)C(=O)N[C@@H](CC(C)C)C(=O)N[C@@H](CCC(N)=O)C(=O)N[C@H](C(=O)N[C@@H](Cc1ccc(O)cc1)C(=O)N1CCC[C@H]1C(=O)N[C@@H](CCCNC(=N)N)C(=O)N[C@H](C(=O)N[C@@H](CC(N)=O)C(=O)N[C@H](C(=O)NCC(=O)N[C@@H](CO)C(=O)N[C@@H](CC(N)=O)C(=O)N[C@H](C(=O)N[C@@H](Cc1ccc(O)cc1)C(N)=O)[C@@H](C)O)C(C)C)[C@@H](C)O)[C@@H](C)O)C(C)C)[C@@H](C)O [AAP40] (Ac-ATQRLANELVRLQTYPRTNVGSNTY-NH2) | 100 | did not inhibit | did not inhibit | suppressed; also recorded: prevent | suppressed; also recorded: prevent | effectively inhibits |
